Here are results for 5 compounds from article PMC10893103, “Cyclodextrin-Enabled Enantioselective Complexation Study of Cathinone Analogs” (Molecules, 2024).

The series in a line: Affinity capillary electrophoresis (ACE), pH 7.4. The conditions noted are these: 30 mM phosphate buffer pH 7.4, 25 °C, 15 kV. An excerpt: To assess the CD complex formation capability of the five cathinone derivatives, we devised a screening ACE method tailored to closely mimic physiological conditions. In a preliminary study, the ACE conditions were optimized regarding the type, pH, and concentration of the background electrolyte, the applied voltage, and the injection parameters. […] In order to avoid high Joule heat generation, sufficiently low voltage should be used; thus, after registering the Ohm plot (I-U plot), it was set to 15 kV. Throughout our ACE measurements, corrections for viscosity and ionic strength were systematically implemented to ensure precise determination of complex stability constants.
The CE experiments were performed on a HP ^3DCE and on an Agilent 7100 instrument (Agilent Technologies, Waldbronn, Germany) equipped with a photodiode array detector and the Chemstation software for data handling. Untreated fused silica capillaries (50 µm id, 48.5 cm total, 40 cm effective length) were purchased from Agilent. Conditioning of new capillary was conducted by flushing with 1 M NaOH followed by 0.1 M NaOH and water for 30 min each. Prior to all runs, the capillary was preconditioned by rinsing with BGE (2 min). The temperature of the capillary was set to 25 °C. UV detection was performed at 215 nm, and 15–25 kV voltage was applied. Samples were injected hydrodynamically (150 mbar·sec, optimized in the 50–500 mbar·sec range). The CE-pH measurements were carried out applying 25 kV voltage and 200 mbar·sec injection.
The background electrolyte of the CE-pH measurements contained 25 mM Na2HPO4 and 25 mM Na2B4O7, and the appropriate pH was adjusted with hydrochloric acid. During the ACE measurements, 30 mM phosphate buffer pH 7.4 (30 mM Na2HPO4—NaOH) was used. The running buffer was 20 mM acetic acid adjusting with 1 M Tris the pH to 4.5 during the chiral screening experiments. The BGEs contained CDs at various concentrations (0.25–20 mM) in the ACE experiments and 1-5-10 mM in the chiral method optimization experiments.
Stock solutions of each cathinone analog (mephedrone, flephedrone, 4-MEC, butylone, and MDPV) were prepared separately in methanol (1 mg/ml), and appropriate dilutions with water were used to prepare sample solutions for the CE-pH titration and for the ACE studies applying DMSO as EOF marker, while their mixture was used during the chiral separation studies.
The simplest way to determine the mobility is from the migration times (tmax) read from the electropherograms from which the apparent mobility could be calculated, but more accurate mobility values could be obtained by the determination with the Haarhoff–van der Linde (HVL) function based on Equation (2). (2) HVLδ(t;a0,a1,a2,a3δ)=a0/a2a3δ2πexp[−1/2(t−a1/a2)^2]/1/exp(a3δ)−1+1/2[1+erf(t−a1/2a2)] where a0 is the area of the HVL function, a1 is the position of the Gaussian component, a2 is the standard deviation of the Gaussian component, and a3δ is the peak shape distortion. The application of the HVL function is necessary in the case of accurate ACE measurements because, in several cases, the peaks are distorted due to the complex formation, which makes reading the migration times and calculating the mobility more difficult and imprecise.
The most popular technique for quantifying the analyte–ligand interaction with CE is mobility shift ACE.

Consider `OCCCNC[C@H]1O[C@@H]2O[C@H]3[C@H](O)[C@@H](O)[C@@H](O[C@H]4[C@H](O)[C@@H](O)[C@@H](O[C@H]5[C@H](O)[C@@H](O)[C@@H](O[C@H]6[C@H](O)[C@@H](O)[C@@H](O[C@H]7[C@H](O)[C@@H](O)[C@@H](O[C@H]8[C@H](O)[C@@H](O)[C@@H](O[C@H]1[C@H](O)[C@H]2O)O[C@@H]8CO)O[C@@H]7CO)O[C@@H]6CO)O[C@@H]5CO)O[C@@H]4CO)O[C@@H]3CO` [HPA-β-CD, mono-6^A-(3-hydroxy)propylamino-β-CD], for which the “4-MEC–CD complex stability constant, Kstab/Kstab1 (unresolved or first migrating enantiomer)” value was 145 ± 15 M⁻¹; the “Butylone–CD complex stability constant, Kstab/Kstab1 (unresolved or first migrating enantiomer)” value was 85 ± 15 M⁻¹; the “Flephedrone–CD complex stability constant, Kstab/Kstab1 (unresolved or first migrating enantiomer)” value stood at 500 ± 105 M⁻¹; the “MDPV–CD complex stability constant, Kstab2 (second migrating enantiomer)” value stood at 570 ± 80 M⁻¹. Moreover, the “MDPV–CD complex stability constant, Kstab/Kstab1 (unresolved or first migrating enantiomer)” value was determined as 840 ± 65 M⁻¹ and the “Mephedrone–CD complex stability constant, Kstab/Kstab1 (unresolved or first migrating enantiomer)” value was determined as 140 ± 35 M⁻¹.
For sulfated-β-CD [S-β-CD], the “Flephedrone–CD complex stability constant, Kstab/Kstab1 (unresolved or first migrating enantiomer)” value was 860 ± 100 M⁻¹.
For the compound `COC[C@H]1O[C@@H]2O[C@H]3[C@H](OC)[C@@H](OC)[C@@H](O[C@H]4[C@H](OC)[C@@H](OC)[C@@H](O[C@H]5[C@H](OC)[C@@H](OC)[C@@H](O[C@H]6[C@H](OC)[C@@H](OC)[C@@H](O[C@H]7[C@H](OC)[C@@H](OC)[C@@H](O[C@H]8[C@H](OC)[C@@H](OC)[C@@H](O[C@H]9[C@H](OC)[C@@H](OC)[C@@H](O[C@H]1[C@H](OC)[C@H]2OC)O[C@@H]9COC)O[C@@H]8COC)O[C@@H]7COC)O[C@@H]6COC)O[C@@H]5COC)O[C@@H]4COC)O[C@@H]3COC` [TRIME-γ-CD, permethylated-γ-CD], the “4-MEC–CD complex stability constant, Kstab/Kstab1 (unresolved or first migrating enantiomer)” value was 20 ± 4 M⁻¹; the “Butylone–CD complex stability constant, Kstab/Kstab1 (unresolved or first migrating enantiomer)” value worked out at 25 ± 10 M⁻¹; the “Flephedrone–CD complex stability constant, Kstab/Kstab1 (unresolved or first migrating enantiomer)” value is < 10 M⁻¹; the “MDPV–CD complex stability constant, Kstab/Kstab1 (unresolved or first migrating enantiomer)” value amounted to 45 ± 14 M⁻¹. Besides, the “Mephedrone–CD complex stability constant, Kstab/Kstab1 (unresolved or first migrating enantiomer)” value was < 10 M⁻¹.
For the compound dimethylated-β-CD [DIME-β-CD], the “4-MEC–CD complex stability constant, Kstab2 (second migrating enantiomer)” value amounted to 270 ± 25 M⁻¹; the “4-MEC–CD complex stability constant, Kstab/Kstab1 (unresolved or first migrating enantiomer)” value stood at 210 ± 20 M⁻¹; the “Flephedrone–CD complex stability constant, Kstab/Kstab1 (unresolved or first migrating enantiomer)” value is 60 ± 6 M⁻¹; the “Mephedrone–CD complex stability constant, Kstab/Kstab1 (unresolved or first migrating enantiomer)” value came to 150 ± 15 M⁻¹.
With `O=C(O)CCSC[C@H]1O[C@@H]2O[C@H]3[C@H](O)[C@@H](O)[C@@H](O[C@H]4[C@H](O)[C@@H](O)[C@@H](O[C@H]5[C@H](O)[C@@H](O)[C@@H](O[C@H]6[C@H](O)[C@@H](O)[C@@H](O[C@H]7[C@H](O)[C@@H](O)[C@@H](O[C@H]1[C@H](O)[C@H]2O)O[C@@H]7CSCCC(=O)O)O[C@@H]6CSCCC(=O)O)O[C@@H]5CSCCC(=O)O)O[C@@H]4CSCCC(=O)O)O[C@@H]3CSCCC(=O)O` [SAX, hexakis-(6-deoxy-6-(2-carboxyethyl)thio)-α-CD], the “Mephedrone–CD complex stability constant, Kstab/Kstab1 (unresolved or first migrating enantiomer)” value is 530 ± 45 M⁻¹.
